In PubChem BioAssay (NCI):
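Grown in 96-well plates, cells were treated for 48 hours with each compound at five concentrations. Insufficient inhibition: endpoint recorded as highest concentration tested. GI50 = concentration required for 50% inhibition of growth. The concentration for full growth arrest is given as TGI.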

Legend:
Experiment in all cases: DTP human tumour cell line panel, 48 h
HL-60(TB) leukemia = tested on: HL-60(TB) leukemia
DU-145 prostate = tested on: DU-145 prostate
OVCAR-8 ovarian = tested on: OVCAR-8 ovarian
SK-MEL-2 melanoma = tested on: SK-MEL-2 melanoma
SK-MEL-28 melanoma = tested on: SK-MEL-28 melanoma
NCI-H522 lung = tested on: NCI-H522 lung
LOX IMVI melanoma = tested on: LOX IMVI melanoma
SF-268 CNS = tested on: SF-268 CNS
HT29 colon = tested on: HT29 colon
HCC-2998 colon = tested on: HCC-2998 colon
SNB-75 CNS = tested on: SNB-75 CNS
PC-3 prostate = tested on: PC-3 prostate
OVCAR-5 ovarian = tested on: OVCAR-5 ovarian
ACHN renal = tested on: ACHN renal
UACC-62 melanoma = tested on: UACC-62 melanoma
HOP-92 NSCLC = tested on: HOP-92 NSCLC
SR leukemia = tested on: SR leukemia
NCI/ADR-RES ovarian = tested on: NCI/ADR-RES ovarian
CAKI-1 renal = tested on: CAKI-1 renal
M14 melanoma = tested on: M14 melanoma
U251 CNS = tested on: U251 CNS
MDA-MB-231 breast = tested on: MDA-MB-231 breast
HOP-62 NSCLC = tested on: HOP-62 NSCLC
K-562 leukemia = tested on: K-562 leukemia
KM12 colon = tested on: KM12 colon
CCRF-CEM leukemia = tested on: CCRF-CEM leukemia
MOLT-4 leukemia = tested on: MOLT-4 leukemia
A549 NSCLC = tested on: A549 NSCLC
MCF7 breast = tested on: MCF7 breast
OVCAR-3 ovarian = tested on: OVCAR-3 ovarian
786-0 renal = tested on: 786-0 renal
UACC-257 melanoma = tested on: UACC-257 melanoma
T-47D breast = tested on: T-47D breast
OVCAR-4 ovarian = tested on: OVCAR-4 ovarian
EKVX NSCLC = tested on: EKVX NSCLC
SNB-19 CNS = tested on: SNB-19 CNS
NCI-H23 lung = tested on: NCI-H23 lung
NCI-H226 lung = tested on: NCI-H226 lung
RXF 393 renal = tested on: RXF 393 renal
SK-OV-3 ovarian = tested on: SK-OV-3 ovarian
SF-539 CNS = tested on: SF-539 CNS
HS 578T breast = tested on: HS 578T breast
HCT-116 colon = tested on: HCT-116 colon
SW-620 colon = tested on: SW-620 colon
SK-MEL-5 melanoma = tested on: SK-MEL-5 melanoma
A498 renal = tested on: A498 renal
TK-10 renal = tested on: TK-10 renal
BT-549 breast = tested on: BT-549 breast
NCI-H460 lung = tested on: NCI-H460 lung
SF-295 CNS = tested on: SF-295 CNS
HCT-15 colon = tested on: HCT-15 colon
RPMI-8226 leukemia = tested on: RPMI-8226 leukemia
SN12C renal = tested on: SN12C renal
COLO 205 colon = tested on: COLO 205 colon
IGROV1 ovarian = tested on: IGROV1 ovarian

## COc1ccc(OC)c(/C=C/c2nc(SCc3ccccc3)n(-c3ccc(Cl)cc3)n2)c1
HL-60(TB) leukemia
  GI50: 3.14 µM
  TGI: 9.86 µM
DU-145 prostate
  GI50: 9.9 µM
  TGI: > 100 µM
OVCAR-8 ovarian
  GI50: 9.36 µM
  TGI: > 100 µM
SK-MEL-2 melanoma
  GI50: 6.38 µM
  TGI: > 100 µM
SK-MEL-28 melanoma
  GI50: 28.5 µM
  TGI: > 100 µM
NCI-H522 lung
  GI50: 3.39 µM
  TGI: 25 µM
LOX IMVI melanoma
  GI50: 2.89 µM
  TGI: > 100 µM
SF-268 CNS
  GI50: 8.39 µM
  TGI: > 100 µM
HT29 colon
  GI50: 3.93 µM
  TGI: 21.5 µM
HCC-2998 colon
  GI50: 8.24 µM
  TGI: > 100 µM
SNB-75 CNS
  GI50: 3.92 µM
  TGI: > 100 µM
PC-3 prostate
  GI50: 33.3 µM
  TGI: > 100 µM
OVCAR-5 ovarian
  GI50: > 100 µM
  TGI: > 100 µM
ACHN renal
  GI50: 23.2 µM
  TGI: > 100 µM
UACC-62 melanoma
  GI50: 6.15 µM
  TGI: > 100 µM
HOP-92 NSCLC
  GI50: > 100 µM
  TGI: > 100 µM
SR leukemia
  GI50: 3.53 µM
  TGI: > 100 µM
NCI/ADR-RES ovarian
  GI50: 2.25 µM
  TGI: > 100 µM
CAKI-1 renal
  GI50: 2.09 µM
  TGI: 5.28 µM
M14 melanoma
  GI50: 4.22 µM
  TGI: > 100 µM
U251 CNS
  GI50: 5.35 µM
  TGI: > 100 µM
MDA-MB-231 breast
  GI50: 30.9 µM
  TGI: > 100 µM
HOP-62 NSCLC
  GI50: 9.57 µM
  TGI: > 100 µM
K-562 leukemia
  GI50: 4.23 µM
  TGI: > 100 µM
KM12 colon
  GI50: 4.99 µM
  TGI: > 100 µM
CCRF-CEM leukemia
  GI50: 4.11 µM
  TGI: > 100 µM
MOLT-4 leukemia
  GI50: 6.51 µM
  TGI: > 100 µM
A549 NSCLC
  GI50: 6.79 µM
  TGI: > 100 µM
MCF7 breast
  GI50: 4.78 µM
  TGI: > 100 µM
OVCAR-3 ovarian
  GI50: 3.54 µM
  TGI: 12 µM
786-0 renal
  GI50: 7.66 µM
  TGI: > 100 µM
UACC-257 melanoma
  GI50: > 100 µM
  TGI: > 100 µM
T-47D breast
  GI50: 11.5 µM
  TGI: 84.6 µM
OVCAR-4 ovarian
  GI50: 67 µM
  TGI: > 100 µM
EKVX NSCLC
  GI50: 9.89 µM
  TGI: > 100 µM
SNB-19 CNS
  GI50: 14.3 µM
  TGI: > 100 µM
NCI-H23 lung
  GI50: 6.85 µM
  TGI: > 100 µM
NCI-H226 lung
  GI50: 27.8 µM
  TGI: > 100 µM
RXF 393 renal
  GI50: 26.6 µM
  TGI: > 100 µM
SK-OV-3 ovarian
  GI50: 8.21 µM
  TGI: > 100 µM
SF-539 CNS
  GI50: 4.25 µM
  TGI: > 100 µM
HS 578T breast
  GI50: 5.23 µM
  TGI: > 100 µM
HCT-116 colon
  GI50: 4.04 µM
  TGI: > 100 µM
SW-620 colon
  GI50: 5.05 µM
  TGI: > 100 µM
SK-MEL-5 melanoma
  GI50: 4.75 µM
  TGI: 21.9 µM
A498 renal
  GI50: 4.54 µM
  TGI: 88.4 µM
TK-10 renal
  GI50: 30.6 µM
  TGI: > 100 µM
BT-549 breast
  GI50: 11.6 µM
  TGI: 38.5 µM
NCI-H460 lung
  GI50: 4.17 µM
  TGI: > 100 µM
SF-295 CNS
  GI50: 3.5 µM
  TGI: 36.6 µM
HCT-15 colon
  GI50: 5.01 µM
  TGI: > 100 µM
RPMI-8226 leukemia
  GI50: 7.39 µM
  TGI: > 100 µM
SN12C renal
  GI50: 8.1 µM
  TGI: > 100 µM
COLO 205 colon
  GI50: 14.6 µM
  TGI: > 100 µM
IGROV1 ovarian
  GI50: 13.1 µM
  TGI: > 100 µM
